In assay [1] the test system is PICSCs. The experiment in a line: LIVE/DEAD Viability/Cytotoxicity Assay on PICSCs. It is filed as cell-based, mouse. The note with it: 48 hours, single agent. As for the experimental part:
This Example is directed to stem cell assays utilizing PICSCs generated in accordance with the presently disclosed and claimed inventive concept(s). The PICSCs were generated as described herein above (i.e., transformation of NIH-3T3 cells with RBM3 gene, followed by transplantation into a nude mouse, then sorting of cells obtained from generated tumors utilizing DCAMKL-1).
The PICSCs were exposed to various compounds/anti-cancer agents, and cell viability assays were then performed using the LIVE/DEAD® Viability/Cytotoxicity Assay from Molecular Probes/Invitrogen (Eugene, Oreg.). The LIVE/DEAD® Viability/Cytotoxicity Assay is an assay that provides a two-color fluorescence cell viability that is based on the simultaneous determination of both live and dead cells.
Briefly, PICSCs cells were grown in a 96 well microtitre plate ([…], Newton, N.C.) to about 40% confluency and treated with anti-cancer agents/compounds for 48 hours. Subsequently, chromogenic substrates Calcein AM and Ethidium homodimer-1 (EthD-1) was added to the cells. Calcein AM is well retained within the live cells, producing uniform green fluorescence in live cells (measured at 515 nM). EthD-1 enters cells with damaged membranes and undergoes an enhancement of fluorescence upon binding to nucleic acids, thereby producing a bright red fluorescence in dead cells (measured at 617 nM). The fluorescence measurement was carried out using a microtitre plate reader (Synergy HT, BIO-TEK, Vinooski, Vt.).
In FIGS. 70-84, the PICSCs were treated with increasing concentrations of various compounds or combinations of compounds for 48 hours, and the data presented therein is represented as a % Dead/Live cells ratio following said treatment. […] Values in each figure are given as average±Standard Error Mean, and asterisks denote statistically significant differences (*p<0.01) compared with control.

Assay [2] has as its system PICSCs. The experiment in a line: Growth and survival of PICSCs after drug treatment. It is filed as cell-based, mouse. As for the experimental part: The PICSCs cells were treated with 100 μM drug (suprapharmacological dose) for 48 hours, and their growth and survival were evaluated. […] Moreover, the in vitro testing strategies allows for a mechanistic study of such compounds.

The next assay deals with PICSC tumor xenografts. The assay is described as follows: PICSC generated isograft tumor growth in mice. The note with it: mouse, in vivo. It is filed as in vivo. On the procedure:
To determine whether targeted DCAMKL-1 downregulation and/or Notch inhibition affected […] generated isograft tumor growth, mice were treated with siRNA to DCAMKL-1 or the Notch inhibitor DAPT. After the tumors were allowed to develop (15 days), siRNA was injected a total of 5 times at an interval of 3 days as described earlier.

A further assay deals with HCT116 tumor xenografts. The assay is described as follows: HCT116 tumor xenograft model in athymic nude mice, intratumoral treatment. It is filed as in vivo. The note with it: HCT 116-induced tumor xenograft, via induction of apoptosis. An excerpt: Real-time reverse transcription-PCR analyses. Total RNA isolated either from cells or from human colon cancer cell tumor xenograft samples was subjected to reverse transcription with Superscript™ II RNase H—Reverse Transcriptase and random hexanucleotide primers (Invitrogen, Carlsbad, Calif.). The cDNA was subsequently used to perform Real-time PCR by SYBR chemistry (SYBR® Green I; Molecular Probes) for specific transcripts using gene specific primers and Jumpstart Taq DNA polymerase (Sigma-Aldrich, St. Louis, Mo.). […] The changes in mRNA were expressed as fold change relative to control with ±SEM value.
miRNA analysis. Total miRNA was isolated using mirVana™ miRNA isolation kit (Ambion Inc.). Total miRNA isolated either from cells or from human colon cancer cell tumor xenograft samples were subjected to reverse transcription with Superscript™ II RNase H—Reverse Transcriptase and random hexanucleotide primers (Invitrogen, Carlsbad, Calif.). The cDNA was subsequently used to perform Real-time PCR by SYBR chemistry (SYBR® Green I; Molecular Probes) for pri-let-7a transcript using specific primers and Jumpstart Taq DNA polymerase (Sigma-Aldrich, St. Louis, Mo.). […] The changes in pri-miRNA were expressed as fold change relative to control with ±SEM value. Primers used are: […]
Western Blot analysis. HCT116 and SW480 cells were cultured in a 6 well plates to 40% confluency and were transfected with si-DCAMKL-1 or si-Scr for 72 h. Cells or the tumor xenograft samples were lysed and the concentration of protein was determined by BCA protein assay kit (Pierce Biotechnology Inc., Rockford, Ill.). […] The membrane was blocked in 5% non-fat dry milk for 1 h and probed overnight with a rabbit anti-DCAMKL-1 antibody (Abcam Inc., Cambridge, Mass.) or with rabbit anti-c-Myc antibody (Santa Cruz). Subsequently, the membrane was incubated with anti-rabbit or anti-goat IgG horseradish peroxidase-conjugated antibodies (Amersham-Pharmacia) for 1 h at room temperature. The 82 kDa DCAMKL-1 and 49 kDa c-Myc proteins were detected using ECL™ Western Blotting detection reagents (Amersham-Pharmacia). Actin (43 kDa), used as loading control was identified using a goat polyclonal IgG (Santa Cruz Biotechnology Inc., Santa Cruz, Calif.).
Immunohistochemistry. Heat Induced Epitope Retrieval was performed on 4 μm formalin-fixed paraffin-embedded sections utilizing a pressurized Decloaking Chamber (Biocare Medical) in citrate buffer (pH 6.0) at 99° C. for 18 min. (a) Brightfield: Slides were incubated in 3% hydrogen peroxide, then normal serum and BSA at room temperature for 20 min. After incubation with primary antibody [DCAMKL-1 C-terminal (Abcam), anti-c-Myc (Santa Cruz Biotechnologies), L-FABP (Santa Cruz Biotechnologies)], the slides were incubated in peroxidase-conjugated EnVision™+polymer detection kit (DAKO). Slides were developed with Diaminobenzidine (Sigma). (b) Fluorescence: Slides were first incubated in Image-iT FX signal enhancer (Invitrogen), followed by normal serum and BSA at room temperature for 20 min.
Xenograft tumor model. (a) Liposomal preparation: siRNA was administered into the xenografts after incorporation into 1,2-Dioleoyl-sn-Glycero-3-Phosphocholine (DOPC) (Avanti Polar Lipids, Alabaster, Ala.). DOPC and siRNA were mixed in the presence of excess tertiary butanol at a ratio of 1:10 (w/w) (siRNA/DOPC). Tween 20 (Sigma-Aldrich) was added to the mixture at a ratio of 1:19 Tween 20:siRNA/DOPC. The mixture was vortexed and frozen in an acetone/dry ice bath and lyophilized. Before administration, the siRNA preparation was reconstituted in 0.9% sterile saline and injected at a dose of 50 μl (5 μM) per injection. (b) Tumor therapy: Female athymic nude mice (NCr-nu) were purchased from the National Cancer Institute-Frederick Cancer Research and Development Center (Frederick, Md.) and housed in specific pathogen-free conditions.

Assay [3] relates to Pdx1-Cre; LSL-KRAS^G12D; p53^lox/+ mouse model of pancreatic neoplasia. The note with it: inhibition of Notch signaling; cited from earlier work.
For the next assay, the system named is HCV subgenomic replicon. The experiment in a line: HCV replication in GS5 cells (Huh7.5 with HCV subgenomic replicon). It is filed as cell-based, hepatitis C virus. Conditions: disruption of microtubules. On the procedure: FIG. 61 illustrates that DCAMKL-1 is required for the HCV replication. A. siRNA against DCAMKL-1 (Si-DCAMKL1, 50 nM and 100 nM) or scrambled siRNA (SCR, 100 nM) were transfected into GS5 cells. Total RNAs were extracted and subjected to real-time quantitative PCR. The levels of HCV and DCAMKL-1 RNAs were considered arbitrary as one unit in untransfected GS5 cells (Cont). Actin mRNA in each sample was used as internal control for PCR. B. Western blot analysis of siRNAs tranfected and untransfected samples as indicated.
Induction of putative stem cell/pluripotency factors by HCV: Normal adult hepatocytes are fully differentiated cells and lack expression of pluripotency factors. However, these cells can be induced to proliferate rapidly after partial hepatectomy and can also be reprogrammed into stem-like cells by forced expression of a cocktail of transcription factors. Thus, the impact of HCV on expression pattern of stem/progenitor cell markers was investigated in GS5 cells, which are derived from hepatoma cell line (Huh7.5) and support constitutive replication of a subgenomic HCV replicon under G418 selection. The replicon expresses HCV nonstructural proteins NS3 through NS5B of the HCV-1a strain and green florescent protein (GFP)-NS5A chimera. Total lysates from parent Huh7.5 and GS5 cells were subjected to Western blot analysis (FIG. 59).
Putative intestinal stem cell marker DCAMKL1 is required for the HCV replication: The eccentric, punctate staining of HCV replication complexes consisting of most of the nonstructural proteins and cellular factors has been a puzzling question. It is known that these replication complexes associate with microtubules in order to replicate the HCV RNA. The DCAMKL1 protein, which binds and polymerizes tubulin into microtubule filaments, is considered as a putative marker for quiescent stem cells in the intestine, and its expression is increased in cancer stem cells. During confocal microscopy, most DCAMKL1 localization was consistently observed in the area containing replication complexes (indicated by NS5A-GFP) and high concentration of microtubules (FIG. 60). The perinuclear co-localization of DCAMKL1 with the NS5A-GFP (indicated by yellow stain) was also observed.
In general terms: A replicon is a self-replicating genome or part of one, used to study replication in cells.

“Also recorded” adds a separate entry of the source.

On to `CCc1c2c(nc3ccc(OC(=O)N4CCC(N5CCCCC5)CC4)cc13)-c1cc3c(c(=O)n1C2)COC(=O)[C@]3(O)CC` [CPT-11, Irinotecan], for which, in the assay on PICSCs [1], the “PICSC cell death (% Dead/Live cells ratio)” value is reported as “no cell death”. Further, in the assay on PICSCs [2] (100 μM drug, 48 hours), the “growth and survival of PICSCs” value was “no significant effect”.
Consider `N.N.[Cl][Pt][Cl]` [Cisplatin], for which the “PICSC cell death (% Dead/Live cells ratio)” value with PICSCs [1] is reported as “increasing levels of PICSC cell death”.
`C[C@H](NC(=O)Cc1cc(F)cc(F)c1)C(=O)N[C@H](C(=O)OC(C)(C)C)c1ccccc1` [DAPT]: the anti-CSC growth properties entry in the assay on PICSC tumor xenografts is on record as “potent anti-CSC growth properties”. The “PICSC cell death (% Dead/Live cells ratio)” value with PICSCs [1] was “increasing levels of PICSC cell death”.
With `O=C1C(=Cc2ccccc2F)CNCC1=Cc1ccccc1F` [EF24, 3,5-bis(2-fluorobenzylidene)piperidin-4-one], the tumor xenograft growth entry in the assay on HCT116 tumor xenografts was “significantly inhibited”. In the assay with PICSC tumor xenografts, the anti-CSC growth properties result was “potent anti-CSC growth properties”. For the same compound, in the assay with PICSCs [1], the “PICSC cell death (% Dead/Live cells ratio)” value was “increasing levels of PICSC cell death”. The “neurite formation, cell growth and cell death of PICSCs” value with PICSCs [2] (1 μM) is “inhibited neurite formation, suppressed cell growth and induced cell death”.
As to `Nc1ccn([C@@H]2O[C@H](CO)[C@@H](O)C2(F)F)c(=O)n1` [Gemcitabine], the “PICSC cell death (% Dead/Live cells ratio)” value in the assay on PICSCs [1] is “significant increase in PICSC cell death”.
Regarding `O=S1(=O)N[C@@]2(CN1CC(F)(F)F)[C@@H]1CC[C@H]2Cc2ccc(/C=C/CN3CCC(C(F)(F)F)CC3)cc2C1` [MRK-003], the tumor development entry in assay [3] is recorded as “completely inhibited tumor development; also recorded: completely blocked tumor development”.
Regarding `COc1cc(/C=C/C(=O)CC(=O)/C=C/c2ccc(O)c(OC)c2)ccc1O` [curcumin], in the assay on PICSCs [2] (30 μM), the “neurite formation, cell growth and cell death of PICSCs” value is “inhibited neurite formation, suppressed cell growth and induced cell death”.
For the compound `OO` [hydrogen peroxide], in the assay with PICSCs [1], the “PICSC cell death (% Dead/Live cells ratio)” value is on record as “complete cell death”.
On to `CC[C@]1(O)C[C@@H]2CN(CCc3c([nH]c4ccccc34)[C@@](C(=O)OC)(c3cc4c(cc3OC)N(C)[C@H]3[C@@](O)(C(=O)OC)[C@H](OC(C)=O)[C@]5(CC)C=CCN6CC[C@]43[C@@H]65)C2)C1` [vinblastin, reference compound], for which, in the assay with HCV subgenomic replicon, the HCV replication entry is “inhibition”.
